Assay results from US7431953B2, “Skin preparation for external use containing Purpuricenus temminckii frass as the active ingredient” (Nihon University, priority 2002, dated 2008).

Test system: rat-derived basophils (RBL-2H3)
Assay: β-Hexosaminidase release-inhibition assay
Format: cell-based
Settings: antigen (DNP-BSA)-stimulated RBL-2H3; FIG. 7, FIG. 8
Method: The assay principle of the β-hexosaminidase release assay is as follows:
β-hexosaminidase is a glycolytic enzyme, and is one of the lysosome enzymes occurring abundantly in granules of mast cells.
In the β-hexosaminidase release assay, p-nitrophenyl phosphate is separated due to the presence of this enzyme. The separated p-nitrophenyl phosphate is determined by a photometric method (405 nm), and the result is set as the β-hexosaminidase enzyme activity.
The effect of inhibiting β-hexosaminidase release was evaluated using the anti-allergic effect test that uses as an index β-hexosaminidase released from the rat-derived basophils (RBL-2H3).
RBL-2H3 cells were cultured (5% carbon dioxide, 37° C.) in an Eagle minimum essential medium containing 10% fetal calf serum (FCS), 100 units/mL penicillin and 100 μg/mL streptomycin. Then, the cells were plated to a 24-well flat-bottomed microplate for cell culture at 2.5×10^5 cells/well ([…] medium/well). By culturing for 24 hours (5% carbon dioxide, 37° C.), the cells were sensitized. The sensitized cells were then washed once in 500 μl of PBF, and 160 μl of the siraganian buffer containing 5.6 mM glucose, 1 mM calcium chloride and 0.1% BSA was added. A sample solution at each concentration and 20 μl of the test substance solution (DMSO: 0.1%) were added, and ten minutes later the antigen (DNP-BSA: 10 μg/mL) was added and incubated for 10 minutes to stimulate the cells. After stopping the reaction by cooling with ice for 10 minutes, 50 μl of the supernatant was transferred to a 96-well flat-bottomed microtiter plate, to which 100 μl of the enzyme reaction was added and mixed. After determining absorbance of the mixture by a microplate reader, the release ratio was determined by the following equation (measurement wavelength: 405 nm, reference wavelength: 655 nm). β-hexosaminidase release ratio (%)=[amount of β-hexosaminidase released by stimulation/amount of total intracellular β-hexosaminidase]×100
Total intracellular β-hexosaminidase was determined using the supernatant obtained by centrifuging the cells disrupted by an ultrasonic disruption instrument.

SMILES	Effect of inhibiting β-hexosaminidase release
CC[C@H](/C=C/[C@@H](C)[C@H]1CCC2[C@@H]3CCC4=CC(=O)CC[C@]4(C)C3CC[C@@]21C)C(C)C (stereo partly shown) [stigmasta-4,22-dien-3-one]	roughly confirmed
CC[C@H](CC[C@@H](C)[C@H]1CCC2[C@@H]3CCC4=CC(=O)CC[C@]4(C)C3CC[C@@]21C)C(C)C (stereo partly shown) [stigmast-4-en-3-one]	roughly confirmed
c1ccc2c(c1)[I+]c1ccccc1-2 [DPI, reference compound]	inhibited, in a concentration-dependent manner
CC[C@H](CC[C@@H](C)[C@H]1CC[C@H]2[C@@H]3CC(=O)C4=CC(=O)CC[C@]4(C)[C@H]3CC[C@]12C)C(C)C [stigmast-4-ene-3,6-dione]	roughly confirmed
